Assay results published in ChEMBL document CHEMBL1153945 (Bioorg Med Chem, 2009).

What was measured:
[1] = target: T1, Nitric oxide synthase, inducible (Mus musculus, UniProt P29477)
T1 sequence (P29477 whole entry): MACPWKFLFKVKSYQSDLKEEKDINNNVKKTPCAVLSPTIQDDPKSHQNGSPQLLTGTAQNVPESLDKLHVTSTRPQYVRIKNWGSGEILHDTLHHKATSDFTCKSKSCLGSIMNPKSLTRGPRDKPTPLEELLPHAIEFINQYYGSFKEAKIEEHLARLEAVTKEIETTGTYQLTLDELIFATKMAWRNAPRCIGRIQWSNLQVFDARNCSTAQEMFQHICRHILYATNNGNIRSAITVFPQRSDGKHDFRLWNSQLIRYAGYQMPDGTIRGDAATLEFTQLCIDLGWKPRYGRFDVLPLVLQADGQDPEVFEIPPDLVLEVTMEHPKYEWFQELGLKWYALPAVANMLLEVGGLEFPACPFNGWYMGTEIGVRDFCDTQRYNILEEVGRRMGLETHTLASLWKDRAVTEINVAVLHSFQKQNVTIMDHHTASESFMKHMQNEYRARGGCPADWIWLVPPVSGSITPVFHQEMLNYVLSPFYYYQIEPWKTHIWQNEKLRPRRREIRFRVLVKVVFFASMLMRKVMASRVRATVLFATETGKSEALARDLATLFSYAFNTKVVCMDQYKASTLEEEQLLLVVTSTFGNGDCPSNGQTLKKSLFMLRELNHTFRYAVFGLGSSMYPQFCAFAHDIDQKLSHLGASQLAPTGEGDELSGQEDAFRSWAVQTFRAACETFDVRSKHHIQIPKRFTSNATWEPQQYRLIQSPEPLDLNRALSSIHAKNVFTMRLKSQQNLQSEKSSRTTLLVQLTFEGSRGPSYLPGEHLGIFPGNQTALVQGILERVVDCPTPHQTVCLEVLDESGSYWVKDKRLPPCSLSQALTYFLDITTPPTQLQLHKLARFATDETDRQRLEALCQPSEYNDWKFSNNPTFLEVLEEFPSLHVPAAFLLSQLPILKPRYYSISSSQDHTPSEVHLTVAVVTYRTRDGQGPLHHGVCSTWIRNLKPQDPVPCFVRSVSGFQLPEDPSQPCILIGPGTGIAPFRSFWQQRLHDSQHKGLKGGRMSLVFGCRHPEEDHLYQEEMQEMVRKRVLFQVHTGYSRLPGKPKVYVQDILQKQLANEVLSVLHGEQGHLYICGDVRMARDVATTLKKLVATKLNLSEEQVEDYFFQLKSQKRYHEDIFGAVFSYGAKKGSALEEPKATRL
Description: Inhibition of mouse recombinant iNOS expressed in Escherichia coli assessed as nitric oxide formation by hemoglobin capture assay

Nitric oxide synthase 1 = Nitric oxide synthase 1 (Rattus norvegicus, UniProt P29476)
Nitric oxide synthase 1, sequence (P29476 whole entry): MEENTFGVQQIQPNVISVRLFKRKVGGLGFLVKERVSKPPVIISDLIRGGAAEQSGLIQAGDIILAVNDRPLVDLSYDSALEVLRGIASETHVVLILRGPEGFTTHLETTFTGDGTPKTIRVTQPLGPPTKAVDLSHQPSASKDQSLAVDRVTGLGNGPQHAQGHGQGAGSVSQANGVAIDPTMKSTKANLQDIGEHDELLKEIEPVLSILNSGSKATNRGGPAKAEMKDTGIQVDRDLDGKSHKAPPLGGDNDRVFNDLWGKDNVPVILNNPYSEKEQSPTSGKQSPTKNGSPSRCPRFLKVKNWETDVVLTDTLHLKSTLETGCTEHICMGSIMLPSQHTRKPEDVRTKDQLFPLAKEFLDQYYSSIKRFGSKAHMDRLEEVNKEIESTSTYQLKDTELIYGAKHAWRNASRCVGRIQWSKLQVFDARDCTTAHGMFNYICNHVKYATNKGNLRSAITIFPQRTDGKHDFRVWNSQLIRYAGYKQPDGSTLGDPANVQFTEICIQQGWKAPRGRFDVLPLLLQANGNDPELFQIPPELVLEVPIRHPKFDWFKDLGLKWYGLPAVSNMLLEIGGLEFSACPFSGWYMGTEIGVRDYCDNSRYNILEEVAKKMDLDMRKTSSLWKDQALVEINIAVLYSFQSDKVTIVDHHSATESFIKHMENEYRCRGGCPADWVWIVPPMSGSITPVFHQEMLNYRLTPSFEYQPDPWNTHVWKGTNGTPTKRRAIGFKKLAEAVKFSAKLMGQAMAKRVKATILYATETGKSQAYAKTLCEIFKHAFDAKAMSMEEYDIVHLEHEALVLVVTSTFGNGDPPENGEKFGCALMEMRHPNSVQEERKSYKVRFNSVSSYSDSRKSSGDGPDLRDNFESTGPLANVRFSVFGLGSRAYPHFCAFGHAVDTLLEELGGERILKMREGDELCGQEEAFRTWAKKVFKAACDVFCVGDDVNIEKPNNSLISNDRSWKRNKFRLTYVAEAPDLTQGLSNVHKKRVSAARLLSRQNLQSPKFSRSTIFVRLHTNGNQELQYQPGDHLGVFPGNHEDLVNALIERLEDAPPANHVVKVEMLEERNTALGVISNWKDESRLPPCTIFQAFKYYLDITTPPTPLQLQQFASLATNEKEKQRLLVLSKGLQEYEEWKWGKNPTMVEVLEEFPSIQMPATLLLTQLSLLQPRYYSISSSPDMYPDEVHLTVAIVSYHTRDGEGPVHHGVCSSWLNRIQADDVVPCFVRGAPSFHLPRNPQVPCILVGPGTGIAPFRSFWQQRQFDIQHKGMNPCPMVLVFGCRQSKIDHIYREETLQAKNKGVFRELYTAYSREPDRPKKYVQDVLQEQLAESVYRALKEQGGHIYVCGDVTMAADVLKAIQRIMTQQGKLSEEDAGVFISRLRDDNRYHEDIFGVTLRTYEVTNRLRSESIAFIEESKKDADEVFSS
Description: Inhibition of rat recombinant nNOS expressed in Escherichia coli assessed as nitric oxide formation by hemoglobin capture assay

Nitric oxide synthase 3 = target: T2, Nitric oxide synthase 3 (Bos taurus, UniProt P29473)
T2 sequence (P29473 whole entry): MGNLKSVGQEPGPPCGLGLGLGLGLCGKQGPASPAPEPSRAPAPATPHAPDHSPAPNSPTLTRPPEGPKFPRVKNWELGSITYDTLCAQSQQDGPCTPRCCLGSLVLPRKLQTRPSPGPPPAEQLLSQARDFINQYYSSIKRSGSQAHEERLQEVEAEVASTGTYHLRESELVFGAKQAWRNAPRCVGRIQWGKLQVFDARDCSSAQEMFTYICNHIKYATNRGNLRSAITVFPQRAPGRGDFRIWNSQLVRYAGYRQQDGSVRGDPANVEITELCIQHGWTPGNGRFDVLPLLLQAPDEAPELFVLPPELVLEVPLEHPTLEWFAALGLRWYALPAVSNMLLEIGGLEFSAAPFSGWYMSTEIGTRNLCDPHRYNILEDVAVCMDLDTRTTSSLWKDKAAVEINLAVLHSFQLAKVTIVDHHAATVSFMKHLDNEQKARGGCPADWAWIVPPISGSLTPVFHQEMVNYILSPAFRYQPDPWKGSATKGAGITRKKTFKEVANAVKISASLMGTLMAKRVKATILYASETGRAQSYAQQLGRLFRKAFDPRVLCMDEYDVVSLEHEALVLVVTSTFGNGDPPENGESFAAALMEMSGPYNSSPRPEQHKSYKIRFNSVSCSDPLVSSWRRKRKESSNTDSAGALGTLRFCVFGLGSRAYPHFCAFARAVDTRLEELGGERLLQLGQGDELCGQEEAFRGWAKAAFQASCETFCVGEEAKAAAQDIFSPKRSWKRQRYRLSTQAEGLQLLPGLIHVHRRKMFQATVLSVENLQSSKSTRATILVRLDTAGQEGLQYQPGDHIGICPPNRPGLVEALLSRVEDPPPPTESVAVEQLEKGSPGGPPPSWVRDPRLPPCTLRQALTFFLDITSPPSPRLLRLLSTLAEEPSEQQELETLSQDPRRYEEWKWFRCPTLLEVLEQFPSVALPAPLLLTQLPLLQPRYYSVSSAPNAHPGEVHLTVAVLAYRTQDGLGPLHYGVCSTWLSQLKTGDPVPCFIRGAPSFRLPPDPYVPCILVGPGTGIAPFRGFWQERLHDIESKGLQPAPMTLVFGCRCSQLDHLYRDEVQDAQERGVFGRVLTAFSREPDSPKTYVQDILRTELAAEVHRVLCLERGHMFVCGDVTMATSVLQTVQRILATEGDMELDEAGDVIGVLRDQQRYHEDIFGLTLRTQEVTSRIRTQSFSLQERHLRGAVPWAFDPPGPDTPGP
Description: Inhibition of bovine recombinant eNOS expressed in Escherichia coli assessed as nitric oxide formation by hemoglobin capture assay

Structure (SMILES) | Ki [1] [µM] | Ki (Nitric oxide synthase 1) [µM] | Ki (Nitric oxide synthase 3) [µM]
Cc1cc(N)nc(C[C@H]2CNC[C@H]2NCCOCCc2cccc(F)c2)c1 (racemic) | 4 | 0.4 | 33
Cc1cc(N)nc(C[C@H]2CNC[C@H]2NC(=O)CNCCc2cccc(F)c2)c1 (racemic) | – | 0.053 | –
Cc1cc(N)nc(C[C@H]2CNC[C@H]2OCC(=O)NCCc2cccc(F)c2)c1 (racemic) | – | – | 145
Cc1cc(N)nc(C[C@H]2CNC[C@H]2OCCNC(=O)Cc2cccc(F)c2)c1 (racemic) | – | 5 | 107
